Data: patent publication US12472272B2, “Radiolabelled compounds for diagnosis or treatment of prostate-specific membrane antigen- expressing cancer” (PROVINCIAL HEALTH SERVICES AUTHORITY, priority 2019, dated 2025)
Entries after “also recorded” stand apart in the source; their conditions may differ.

Key:
[1] = test system: PSMA-expressing cancer xenografts (LNCaP); assay: Biodistribution of ^177Lu-labeled HTK03041; type: in vivo, mice; details: for Tissue (% ID/g): Salivary / Tissue (% ID/g): Seminal / Tissue (% ID/g): Spleen / Tissue (% ID/g): Stomach / Tissue (% ID/g): Tail / Tissue (% ID/g): Testes / Tissue (% ID/g): Thyroid / Tissue (% ID/g): Tumor / Tissue (% ID/g): Urine / tumor-to-background contrast ratio Tumor: Blood / tumor-to-background contrast ratio Tumor: Muscle / tumor-to-background contrast ratio Tumor: kidney / Tissue (% ID/g): Adrenal glands / Tissue (% ID/g): Blood / Tissue (% ID/g): Bone / Tissue (% ID/g): Brain / Tissue (% ID/g): Fat / Tissue (% ID/g): Heart / Tissue (% ID/g): Intestine / Tissue (% ID/g): Kidneys / Tissue (% ID/g): Lacrimal / Tissue (% ID/g): Liver / Tissue (% ID/g): Lungs / Tissue (% ID/g): Muscle / Tissue (% ID/g): Pancreas: ^177Lu
Method: (§1) Imaging and biodistribution experiments were performed using NODSCID 1L2RγKO male mice. Mice were anesthetized by inhalation with 2% isoflurane in oxygen, and implanted subcutaneously with 1×10^7 LNCaP cells behind left shoulder. Mice were imaged or used in biodistribution studies when the tumor grew up to reach 5-8 mm in diameter during 5-6 weeks.
(§2) SPECT/CT imaging experiments were conducted using the MlLabs (Utrecht, the Netherlands) U-SPECT-II/CT scanner. Each tumor bearing mouse was injected with ˜37 MBq of ^177Lu-labeled HTK03041 through the tail vein under anesthesia (2% isoflurane in oxygen). The mice were allowed to recover and roam freely in their cage and imaged at 1, 4, 24, 72 and 120 hours after injection. At each time point, the mice were sedated again and positioned in the scanner. A 5-min CT scan was conducted first for anatomical reference with a voltage setting at 60 kV and current at 615 μA followed by a 60-min static emission scan acquired in list mode using an ultra-high resolution multi-pinhole rat-mouse (1 mm pinhole size) collimator. Data were reconstructed using the U-SPECT II software with a 20% window width on three energy windows. The photopeak window was centered at 208 keV, with lower scatter and upper scatter windows centered at 170 and 255 keV, respectively. Reconstruction parameters used maximum-likelihood expectation maximization (3 iterations), pixel-based ordered subset expectation maximization (16 subsets), and a post-processing filter (Gaussian blurring) of 0.5 mm. Images were decay corrected to injection time in PMOD (PMOD Technologies, Switzerland) then converted to DICOM for qualitative visualization in Inveon Research Workplace (Siemens Medical Solutions USA, Inc.).
For biodistribution studies, the mice were injected with the radiotracer as described above. At predetermined time points (1 or 3 h for ^68Ga studies; 1, 4, 24, 72, or 120 h for ^177Lu studies), the mice was anesthetized with 2% isoflurane inhalation, and euthanized by CO2 inhalation. Blood was withdrawn immediately from the heart, and the organs/tissues of interest were collected. The collected organs/tissues were weighed and counted using a Perkin Elmer (Waltham, MA) Wizard2 2480 gamma counter. The uptake in each organ/tissue was normalized to the injected dose using a standard curve, and expressed as the percentage of the injected dose per gram of tissue (% ID/g).

LNCaP tumors = assay: SPECT/CT imaging of ^177Lu-labeled HTK03041; type: in vivo, mice; details: 1 h to 120 h post-injection, FIG. 4
Method: as §1
as §2, with “Reconstruction parameters used maximum-likelihood expectation maximization (3 iterations), pixel-based ordered subset expectation maximization (16 subsets), and a post-processing filter (Gaussian blurring) of 0.5 mm. Images were decay corrected to injection time in PMOD (PMOD Technologies, Switzerland) then converted to DICOM for qualitative visualization in Inveon Research Workplace (Siemens Medical Solutions USA, Inc.).” left out

Compound: O=C([O-])CN1CCN(CC(=O)[O-])CCN(CC(=O)NC[C@H]2CC[C@H](C(=O)N[C@@H](Cc3c4ccccc4cc4ccccc34)C(=O)NCCCC[C@H](NC(=O)N[C@@H](CCC(=O)O)C(=O)O)C(=O)O)CC2)CCN(CC(=O)[O-])CC1.[177Lu+3] [^177Lu-HTK03041]
- Tissue (% ID/g): Salivary ([1]; 24 h post-injection): 0.40 ± 0.06 % ID/g
- Tissue (% ID/g): Seminal ([1]; 24 h post-injection): 0.23 ± 0.13 % ID/g
- Tissue (% ID/g): Spleen ([1]; 24 h post-injection): 0.59 ± 0.19 % ID/g
- Tissue (% ID/g): Stomach ([1]; 24 h post-injection): 0.18 ± 0.04 % ID/g
- Tissue (% ID/g): Tail ([1]; 24 h post-injection): 0.34 ± 0.17 % ID/g
- Tissue (% ID/g): Testes ([1]; 24 h post-injection): 0.40 ± 0.08 % ID/g
- Tissue (% ID/g): Thyroid ([1]; 24 h post-injection): 0.47 ± 0.09 % ID/g
- Tissue (% ID/g): Tumor ([1]; 24 h post-injection): 19.8 ± 6.13 % ID/g
- Tissue (% ID/g): Urine ([1]; 24 h post-injection): 23.8 ± 8.50 % ID/g
- tumor-to-background contrast ratio Tumor: Blood ([1]; 24 h post-injection): 282 ± 82.6
- tumor-to-background contrast ratio Tumor: Muscle ([1]; 24 h post-injection): 142 ± 30.1
- tumor-to-background contrast ratio Tumor: kidney ([1]; 24 h post-injection): 0.97 ± 0.15
- Tissue (% ID/g): Adrenal glands ([1]; 72 h post-injection): 0.12 ± 0.05 % ID/g
- Tissue (% ID/g): Blood ([1]; 72 h post-injection): 0.02 ± 0.00 % ID/g
- Tissue (% ID/g): Bone ([1]; 72 h post-injection): 0.02 ± 0.01 % ID/g
- Tissue (% ID/g): Brain ([1]; 72 h post-injection): 0.01 ± 0.00 % ID/g
- Tissue (% ID/g): Fat ([1]; 72 h post-injection): 0.03 ± 0.01 % ID/g
- Tissue (% ID/g): Heart ([1]; 72 h post-injection): 0.07 ± 0.02 % ID/g
- Tissue (% ID/g): Intestine ([1]; 72 h post-injection): 0.13 ± 0.04 % ID/g
- Tissue (% ID/g): Kidneys ([1]; 72 h post-injection): 1.27 ± 0.58 % ID/g
- Tissue (% ID/g): Lacrimal ([1]; 72 h post-injection): 0.01 ± 0.01 % ID/g
- Tissue (% ID/g): Liver ([1]; 72 h post-injection): 0.13 ± 0.05 % ID/g
- Tissue (% ID/g): Lungs ([1]; 72 h post-injection): 0.14 ± 0.04 % ID/g
- Tissue (% ID/g): Muscle ([1]; 72 h post-injection): 0.02 ± 0.01 % ID/g
- Tissue (% ID/g): Pancreas ([1]; 72 h post-injection): 0.05 ± 0.02 % ID/g
- Tissue (% ID/g): Salivary ([1]; 72 h post-injection): 0.08 ± 0.03 % ID/g
- Tissue (% ID/g): Seminal ([1]; 72 h post-injection): 0.03 ± 0.01 % ID/g
- Tissue (% ID/g): Spleen ([1]; 72 h post-injection): 0.12 ± 0.04 % ID/g
- Tissue (% ID/g): Stomach ([1]; 72 h post-injection): 0.19 ± 0.09 % ID/g
- Tissue (% ID/g): Tail ([1]; 72 h post-injection): 0.13 ± 0.08 % ID/g
- Tissue (% ID/g): Testes ([1]; 72 h post-injection): 0.08 ± 0.02 % ID/g
- Tissue (% ID/g): Thyroid ([1]; 72 h post-injection): 0.09 ± 0.02 % ID/g
- Tissue (% ID/g): Tumor ([1]; 72 h post-injection): 15.2 ± 4.72 % ID/g
- Tissue (% ID/g): Urine ([1]; 72 h post-injection): 0.67 ± 0.22 % ID/g
- tumor-to-background contrast ratio Tumor: Blood ([1]; 72 h post-injection): 805 ± 164
- tumor-to-background contrast ratio Tumor: Muscle ([1]; 72 h post-injection): 647 ± 119
- tumor-to-background contrast ratio Tumor: kidney ([1]; 72 h post-injection): 13.1 ± 3.75
- Tissue (% ID/g): Adrenal glands ([1]; 120 h post-injection): 0.11 ± 0.11 % ID/g
- Tissue (% ID/g): Blood ([1]; 120 h post-injection): 0.01 ± 0.01 % ID/g
- Tissue (% ID/g): Bone ([1]; 120 h post-injection): 0.02 ± 0.00 % ID/g
- Tissue (% ID/g): Brain ([1]; 120 h post-injection): 0.01 ± 0.00 % ID/g
- Tissue (% ID/g): Fat ([1]; 120 h post-injection): 0.05 ± 0.09 % ID/g
- Tissue (% ID/g): Heart ([1]; 120 h post-injection): 0.06 ± 0.02 % ID/g
- Tissue (% ID/g): Intestine ([1]; 120 h post-injection): 0.06 ± 0.03 % ID/g
- Tissue (% ID/g): Kidneys ([1]; 120 h post-injection): 1.06 ± 0.74 % ID/g
- Tissue (% ID/g): Lacrimal ([1]; 120 h post-injection): 0.01 ± 0.01 % ID/g
- Tissue (% ID/g): Liver ([1]; 120 h post-injection): 0.13 ± 0.04 % ID/g
- Tissue (% ID/g): Lungs ([1]; 120 h post-injection): 0.10 ± 0.04 % ID/g
- Tissue (% ID/g): Muscle ([1]; 120 h post-injection): 0.02 ± 0.02 % ID/g
- Tissue (% ID/g): Pancreas ([1]; 120 h post-injection): 0.04 ± 0.01 % ID/g
- Tissue (% ID/g): Salivary ([1]; 120 h post-injection): 0.06 ± 0.04 % ID/g
- Tissue (% ID/g): Seminal ([1]; 120 h post-injection): 0.02 ± 0.01 % ID/g
- Tissue (% ID/g): Spleen ([1]; 120 h post-injection): 0.22 ± 0.11 % ID/g
- Tissue (% ID/g): Stomach ([1]; 120 h post-injection): 0.05 ± 0.04 % ID/g
- Tissue (% ID/g): Tail ([1]; 120 h post-injection): 0.11 ± 0.07 % ID/g
- Tissue (% ID/g): Testes ([1]; 120 h post-injection): 0.06 ± 0.01 % ID/g
- Tissue (% ID/g): Thyroid ([1]; 120 h post-injection): 0.08 ± 0.03 % ID/g
- Tissue (% ID/g): Tumor ([1]; 120 h post-injection): 22.3 ± 6.90 % ID/g
- Tissue (% ID/g): Urine ([1]; 120 h post-injection): 0.29 ± 0.04 % ID/g
- tumor-to-background contrast ratio Tumor: Blood ([1]; 120 h post-injection): 1670 ± 272
- tumor-to-background contrast ratio Tumor: Muscle ([1]; 120 h post-injection): 1215 ± 512
- tumor-to-background contrast ratio Tumor: kidney ([1]; 120 h post-injection): 25.4 ± 9.59
- tumor uptake over the investigated time points ([1]; up to 120 h post-injection): remained at the similar level throughout the investigated time points; also recorded: sustained over the course of the study
- uptake in background tissues including kidneys in SPECT images (LNCaP tumors): cleared quickly over time
- uptake in tumor in SPECT images (LNCaP tumors): sustained over the course the study
